Reference: BigSolDB 2.1

For `CC(C)C(=O)Nc1ccc([N+](=O)[O-])c(C(F)(F)F)c1`, the solubility (mole fraction) (in 2-ethoxyethanol, 278.15 K) was 0.132, the solubility (mole fraction) (in 2-ethoxyethanol, 283.15 K) was 0.142 and the solubility (mole fraction) (in 2-ethoxyethanol, 288.15 K) was 0.153. For the same molecule, the solubility (mole fraction) (in 2-ethoxyethanol, 293.15 K) was 0.164, the solubility (mole fraction) (in 2-ethoxyethanol, 298.15 K) was 0.176 and the solubility (mole fraction) (in 2-ethoxyethanol, 303.15 K) was 0.19. The solubility (mole fraction) (in 2-ethoxyethanol, 308.15 K) was 0.204, the solubility (mole fraction) (in 2-ethoxyethanol, 313.15 K) was 0.22 and the solubility (mole fraction) (in 2-ethoxyethanol, 318.15 K) was 0.237. It also gave a solubility (mole fraction) (in 2-ethoxyethanol, 323.15 K) of 0.258, a solubility (mole fraction) (in 2-methoxyethanol, 278.15 K) of 0.121 and a solubility (mole fraction) (in 2-methoxyethanol, 283.15 K) of 0.13. For the same molecule, the solubility (mole fraction) (in 2-methoxyethanol, 288.15 K) was 0.142, the solubility (mole fraction) (in 2-methoxyethanol, 293.15 K) was 0.153 and the solubility (mole fraction) (in 2-methoxyethanol, 298.15 K) was 0.166. For the same molecule, the solubility (mole fraction) (in 2-methoxyethanol, 303.15 K) was 0.18, the solubility (mole fraction) (in 2-methoxyethanol, 308.15 K) was 0.195 and the solubility (mole fraction) (in 2-methoxyethanol, 313.15 K) was 0.212. The solubility (mole fraction) (in 2-methoxyethanol, 318.15 K) was 0.229, the solubility (mole fraction) (in 2-methoxyethanol, 323.15 K) was 0.25 and the solubility (mole fraction) (in DMF, 278.15 K) was 0.382. It also gave a solubility (mole fraction) (in DMF, 283.15 K) of 0.391, a solubility (mole fraction) (in DMF, 288.15 K) of 0.401 and a solubility (mole fraction) (in DMF, 293.15 K) of 0.41. The solubility (mole fraction) (in DMF, 298.15 K) was 0.421, the solubility (mole fraction) (in DMF, 303.15 K) was 0.433 and the solubility (mole fraction) (in DMF, 308.15 K) was 0.447. The solubility (mole fraction) (in DMF, 313.15 K) was 0.462, the solubility (mole fraction) (in DMF, 318.15 K) was 0.476 and the solubility (mole fraction) (in DMF, 323.15 K) was 0.494. For the same molecule, the solubility (mole fraction) (in DMSO, 293.15 K) was 0.433, the solubility (mole fraction) (in DMSO, 298.15 K) was 0.443 and the solubility (mole fraction) (in DMSO, 303.15 K) was 0.455. For the same molecule, the solubility (mole fraction) (in DMSO, 308.15 K) was 0.469, the solubility (mole fraction) (in DMSO, 313.15 K) was 0.481 and the solubility (mole fraction) (in DMSO, 318.15 K) was 0.496. The solubility (mole fraction) (in DMSO, 323.15 K) was 0.512, the solubility (mole fraction) (in acetone, 278.15 K) was 0.162 and the solubility (mole fraction) (in acetone, 283.15 K) was 0.173. It also gave a solubility (mole fraction) (in acetone, 288.15 K) of 0.185, a solubility (mole fraction) (in acetone, 293.15 K) of 0.196 and a solubility (mole fraction) (in acetone, 298.15 K) of 0.209. For the same molecule, the solubility (mole fraction) (in acetone, 303.15 K) was 0.223, the solubility (mole fraction) (in acetone, 308.15 K) was 0.238 and the solubility (mole fraction) (in acetone, 313.15 K) was 0.255. The solubility (mole fraction) (in acetone, 318.15 K) was 0.273, the solubility (mole fraction) (in acetone, 323.15 K) was 0.293 and the solubility (mole fraction) (in dichloromethane, 278.15 K) was 0.00732. The solubility (mole fraction) (in dichloromethane, 283.15 K) was 0.00924, the solubility (mole fraction) (in dichloromethane, 288.15 K) was 0.0117 and the solubility (mole fraction) (in dichloromethane, 293.15 K) was 0.0143. For the same molecule, the solubility (mole fraction) (in dichloromethane, 298.15 K) was 0.0182, the solubility (mole fraction) (in dichloromethane, 303.15 K) was 0.0223 and the solubility (mole fraction) (in dichloromethane, 308.15 K) was 0.0273. For the same molecule, the solubility (mole fraction) (in ethanol, 278.15 K) was 0.0336, the solubility (mole fraction) (in ethanol, 283.15 K) was 0.0406 and the solubility (mole fraction) (in ethanol, 288.15 K) was 0.0503. The solubility (mole fraction) (in ethanol, 293.15 K) was 0.0586, the solubility (mole fraction) (in ethanol, 298.15 K) was 0.0699 and the solubility (mole fraction) (in ethanol, 303.15 K) was 0.083. The solubility (mole fraction) (in ethanol, 308.15 K) was 0.0979, the solubility (mole fraction) (in ethanol, 313.15 K) was 0.116 and the solubility (mole fraction) (in ethanol, 318.15 K) was 0.135. For the same molecule, the solubility (mole fraction) (in ethanol, 323.15 K) was 0.158, the solubility (mole fraction) (in ethyl acetate, 278.15 K) was 0.0998 and the solubility (mole fraction) (in ethyl acetate, 283.15 K) was 0.109. The solubility (mole fraction) (in ethyl acetate, 288.15 K) was 0.119, the solubility (mole fraction) (in ethyl acetate, 293.15 K) was 0.131 and the solubility (mole fraction) (in ethyl acetate, 298.15 K) was 0.143. It also gave a solubility (mole fraction) (in ethyl acetate, 303.15 K) of 0.156, a solubility (mole fraction) (in ethyl acetate, 308.15 K) of 0.17 and a solubility (mole fraction) (in ethyl acetate, 313.15 K) of 0.187. It also gave a solubility (mole fraction) (in ethyl acetate, 318.15 K) of 0.205, a solubility (mole fraction) (in ethyl acetate, 323.15 K) of 0.225 and a solubility (mole fraction) (in ethylene glycol, 278.15 K) of 0.00089. The solubility (mole fraction) (in ethylene glycol, 283.15 K) was 0.00116, the solubility (mole fraction) (in ethylene glycol, 288.15 K) was 0.0015 and the solubility (mole fraction) (in ethylene glycol, 293.15 K) was 0.00195. The solubility (mole fraction) (in ethylene glycol, 298.15 K) was 0.00241, the solubility (mole fraction) (in ethylene glycol, 303.15 K) was 0.00308 and the solubility (mole fraction) (in ethylene glycol, 308.15 K) was 0.0039. It also gave a solubility (mole fraction) (in ethylene glycol, 313.15 K) of 0.00491, a solubility (mole fraction) (in ethylene glycol, 318.15 K) of 0.0061 and a solubility (mole fraction) (in ethylene glycol, 323.15 K) of 0.00758. For the same molecule, the solubility (mole fraction) (in methanol, 278.15 K) was 0.0296, the solubility (mole fraction) (in methanol, 283.15 K) was 0.0362 and the solubility (mole fraction) (in methanol, 288.15 K) was 0.0446. For the same molecule, the solubility (mole fraction) (in methanol, 293.15 K) was 0.0532, the solubility (mole fraction) (in methanol, 298.15 K) was 0.065 and the solubility (mole fraction) (in methanol, 303.15 K) was 0.078. It also gave a solubility (mole fraction) (in methanol, 308.15 K) of 0.0933, a solubility (mole fraction) (in methanol, 313.15 K) of 0.11 and a solubility (mole fraction) (in methanol, 318.15 K) of 0.131. For the same molecule, the solubility (mole fraction) (in methanol, 323.15 K) was 0.153, the solubility (mole fraction) (in methyl acetate, 278.15 K) was 0.0945 and the solubility (mole fraction) (in methyl acetate, 283.15 K) was 0.103. The solubility (mole fraction) (in methyl acetate, 288.15 K) was 0.113, the solubility (mole fraction) (in methyl acetate, 293.15 K) was 0.123 and the solubility (mole fraction) (in methyl acetate, 298.15 K) was 0.135. The solubility (mole fraction) (in methyl acetate, 303.15 K) was 0.144, the solubility (mole fraction) (in methyl acetate, 308.15 K) was 0.16 and the solubility (mole fraction) (in methyl acetate, 313.15 K) was 0.175. For the same molecule, the solubility (mole fraction) (in methyl acetate, 318.15 K) was 0.192 and the solubility (mole fraction) (in methyl acetate, 323.15 K) was 0.21.
